One molecule from US9066861B2 (priority 2009, dated 2015) can be followed below.

A short description of series [1]: Stability analysis of raw API by stability indicating HPLC method. It is filed as physicochemical. As to conditions: for Assay (%) HPLC / Percentage Drop (%) HPLC / loss in 3 Months: raw API; for Assay (%) HPLC / Percentage Drop (%) HPLC: after 3 Months. An excerpt:
(§1) In both studies the * Initial denotes the results of the samples tested at the time of receipt of the API from the supplier.

The nature of series [2]: Stability analysis of raw API by titration method (BP). It is filed as physicochemical. The settings on record: after 3 Months.
From the text: as §1

For `CC(=O)O[C@H]1C[C@@]2(C)[C@@H](C[C@@H](O)[C@H]3[C@@]4(C)CC[C@@H](O)[C@@H](C)[C@@H]4CC[C@@]32C)/C1=C(\CCC=C(C)C)C(=O)O` [Sodium Fusidate], the “Initial (%)” value in series [1] (raw API tested at the time of receipt from the supplier, method not stated) is recorded as 98.7%. Further, the “Assay (%) HPLC” value worked out at 92.96% in series [1] (45° C. (C) closed Petri dish), 92.65% in series [1] (45° C. (O) open Petri dish), 97.67% in series [1] (RT (C) closed Petri dish) and 96.25% in series [1] (RT (O) open Petri dish). Also, the “Percentage Drop (%) HPLC” value in series [1] (45° C. (C) closed Petri dish) amounted to 5.74%; in series [1] (45° C. (O) open Petri dish), 6.05%; in series [1] (RT (C) closed Petri dish), 1.03%; in series [1] (RT (O) open Petri dish), 2.45%. The “loss in 3 Months” value in series [1] (45° C. (open condition)) was “about 6%”; in series [1] (room temperature (open condition)), “about 2.5%”. Further, in series [1] (raw APIs, Tables 1 and 2), the “stability as an API, Sodium Fusidate compared with Fusidic acid” value was “significantly more stable than Fusidic acid”. The “Assay (%) Titration” value in series [2] (45° C. (C) closed Petri dish) was found to be 97.16%; in series [2] (45° C. (O) open Petri dish), 97.07%; in series [2] (RT (C) closed Petri dish), 98.85%; in series [2] (RT (O) open Petri dish) it was 97.71%. Further, the “Percentage Drop (%) Titration” value is reported as 1.54% in series [2] (45° C. (C) closed Petri dish), 1.63% in series [2] (45° C. (O) open Petri dish), −0.15% in series [2] (RT (C) closed Petri dish) and 0.99% in series [2] (RT (O) open Petri dish).
